Reference: patent US11767282B2, “Composition biologically active to stenoma catenifer and sustained release preparation comprising the same for controlling insect pest” (Shin-Etsu Chemical Co., Ltd., priority 2021, dated 2023)
Entries after “also recorded” stand apart in the source; their conditions may differ.

Assays:
Stenoma catenifer [1] = settings: Stenoma catenifer males; Millar et al. 2008, Hoddle et al. 2009; cited from earlier work
Stenoma catenifer [2] = test: field trap evaluation of sustained release preparations (white adhesive trap); assay type: in vivo; settings: field traps, versus (9Z)-9,13-tetradecadien-11-ynal (1) alone
Text: A white adhesive trap was used for evaluation of the sustained release preparation. […] An adhesive substance is placed to the upper surface of the bottom plate, and the sustained release preparation A is directly mounted on the adhesive surface for use. In other words, the white adhesive trap has the structure in which only insect pests that come close to the sustained release preparation are captured, and the capture of untargeted insect pests are avoided as much as possible.
In the period of from September 23 and Nov. 25, 2019, the traps containing the respective sustained release preparations were installed in the orchards in which Stenoma catenifer lived. Adult male insect pests captured and killed in each trap were counted every 7 days. The control effect was evaluated by determining the relative value of the number of the insect pests captured by the sustained release preparation of Example 1 when regarding the total number of insect pests captured by the sustained release preparation of later-described Example 2 as 100.

[3] = system: tomato fruit borer (Neoleucinodes elegantalis); settings: added to sex pheromone main component (11E)-11-hexadecenol; Cabrera, J. Chem. Ecol. 2001; cited from earlier work

CCCCC/C=C\C/C=C\CCCCCCCCCCCCC [(6Z,9Z)-6,9-tricosadiene]
effect on attraction number in field attraction tests (Stenoma catenifer [1]): did not affect the attraction number

C=CC#C/C=C/CCCCCCCC=O [(9E)-9,13-tetradecadien-11-ynal]
number of male adult insect pests captured compared with the comparative attractant (Stenoma catenifer [2]): increase in the total number of the captured insect pests

C=CC#C/C=C\CCCCCCCCO [(9Z)-9,13-tetradecadien-11-yn-1-ol]
effect on attraction number in field attraction tests (Stenoma catenifer [1]): reduced the attraction number; also recorded: attraction inhibitor

C=CC#C/C=C\CCCCCCCC=O [(9Z)-9,13-tetradecadien-11-ynal]
effect on attraction number in field attraction tests (Stenoma catenifer [1]): highest activity among the many attractant compositions; also recorded: attracted Stenoma catenifer

CCCC/C=C\CCCCCCCCCCO [(11Z)-11-hexadecenol]
effect of addition on attracted number [3]: greatly reduce the attracted number
